Laboratory results published in ChEMBL document CHEMBL5584225, “Discovery of an efficacious KDM5B PROTAC degrader GT-653 up-regulating IFN response genes in prostate cancer” (Eur J Med Chem, 2024).
Values belong to the compound of their own block, whether it stands above or below them. Active and inactive are the calls of the source. No cut-off for these calls is given here.

Tests used:
[1] = biological target: T1, Protein cereblon/Lysine-specific demethylase 5B (Homo sapiens) (UniProt Q96SW2+Q9UGL1); assay: PROTAC activity at CRBN/KDM5B in human 22Rv1 cells assessed as induction of KDM5B degradation at 10 uM incubated for 12 hrs by Western blot analysis relative to control; type: cell-based
T1 sequence (Q96SW2 whole entry, looked up): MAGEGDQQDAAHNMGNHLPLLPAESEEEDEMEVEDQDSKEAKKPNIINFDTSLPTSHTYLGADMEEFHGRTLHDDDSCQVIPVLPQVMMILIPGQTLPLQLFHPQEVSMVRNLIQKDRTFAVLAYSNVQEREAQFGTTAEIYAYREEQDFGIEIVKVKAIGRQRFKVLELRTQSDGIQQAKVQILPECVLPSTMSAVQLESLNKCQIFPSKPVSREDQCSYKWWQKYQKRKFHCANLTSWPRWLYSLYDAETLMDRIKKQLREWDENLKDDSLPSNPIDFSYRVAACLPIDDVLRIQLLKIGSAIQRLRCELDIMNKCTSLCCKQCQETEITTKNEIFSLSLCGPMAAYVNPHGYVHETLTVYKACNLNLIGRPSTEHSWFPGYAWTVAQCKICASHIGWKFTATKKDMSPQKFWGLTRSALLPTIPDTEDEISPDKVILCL
T1 sequence (Q9UGL1 whole entry, looked up): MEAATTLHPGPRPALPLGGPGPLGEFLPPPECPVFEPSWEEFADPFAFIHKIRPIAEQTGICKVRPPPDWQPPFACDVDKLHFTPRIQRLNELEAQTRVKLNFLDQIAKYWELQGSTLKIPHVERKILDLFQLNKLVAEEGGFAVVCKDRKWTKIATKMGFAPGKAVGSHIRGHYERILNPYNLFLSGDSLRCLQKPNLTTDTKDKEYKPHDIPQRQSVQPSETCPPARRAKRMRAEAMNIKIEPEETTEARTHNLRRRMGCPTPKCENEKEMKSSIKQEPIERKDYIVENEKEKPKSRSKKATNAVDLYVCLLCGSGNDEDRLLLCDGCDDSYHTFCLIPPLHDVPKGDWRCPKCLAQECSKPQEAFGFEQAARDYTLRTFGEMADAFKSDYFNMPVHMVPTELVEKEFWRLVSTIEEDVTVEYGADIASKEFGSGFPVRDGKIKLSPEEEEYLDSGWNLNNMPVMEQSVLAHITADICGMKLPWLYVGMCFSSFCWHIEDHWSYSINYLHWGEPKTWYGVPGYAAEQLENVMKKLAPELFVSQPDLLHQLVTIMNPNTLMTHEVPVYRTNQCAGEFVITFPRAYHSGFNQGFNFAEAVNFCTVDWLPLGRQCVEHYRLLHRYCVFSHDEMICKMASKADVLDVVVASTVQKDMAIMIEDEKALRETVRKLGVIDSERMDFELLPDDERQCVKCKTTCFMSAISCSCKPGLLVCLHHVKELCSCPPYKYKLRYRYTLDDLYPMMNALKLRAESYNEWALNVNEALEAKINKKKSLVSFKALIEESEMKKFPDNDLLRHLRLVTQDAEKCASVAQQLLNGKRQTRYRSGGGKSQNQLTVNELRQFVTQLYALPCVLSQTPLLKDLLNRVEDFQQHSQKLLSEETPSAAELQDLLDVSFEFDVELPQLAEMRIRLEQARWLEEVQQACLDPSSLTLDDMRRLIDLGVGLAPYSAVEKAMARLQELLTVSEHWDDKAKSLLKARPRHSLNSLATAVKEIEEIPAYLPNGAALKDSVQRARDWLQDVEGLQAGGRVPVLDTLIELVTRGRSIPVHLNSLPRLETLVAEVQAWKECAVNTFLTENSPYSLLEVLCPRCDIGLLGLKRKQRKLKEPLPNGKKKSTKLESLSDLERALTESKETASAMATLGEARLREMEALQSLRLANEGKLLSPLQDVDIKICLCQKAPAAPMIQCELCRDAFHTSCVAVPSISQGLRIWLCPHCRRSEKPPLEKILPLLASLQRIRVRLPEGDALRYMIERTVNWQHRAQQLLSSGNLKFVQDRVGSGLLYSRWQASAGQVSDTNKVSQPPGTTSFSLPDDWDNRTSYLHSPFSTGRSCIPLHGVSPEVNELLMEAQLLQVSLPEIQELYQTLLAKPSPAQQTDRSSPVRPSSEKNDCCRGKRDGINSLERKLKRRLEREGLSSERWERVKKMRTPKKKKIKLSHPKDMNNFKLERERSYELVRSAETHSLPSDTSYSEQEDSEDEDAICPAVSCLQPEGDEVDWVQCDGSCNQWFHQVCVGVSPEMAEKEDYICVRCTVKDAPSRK

[2] = biological target: Lysine-specific demethylase 5B (Homo sapiens) (UniProt Q9UGL1); assay: Inhibition of KDM5B (unknown origin) assessed as increase in H3K4me3 level
Lysine-specific demethylase 5B (Homo sapiens), sequence (Q9UGL1 whole entry): as the sequence (Q9UGL1 whole entry, looked up) above

[3] = biological target: Lysine-specific demethylase 5B (Homo sapiens) (UniProt Q9UGL1); assay: Inhibition of KDM5B in human 22Rv1 cells assessed as upregulation of H3K4me3 level at 20 uM incubated for 24 hrs by Western blot analysis; type: cell-based
[4] = biological target: Lysine-specific demethylase 5B (Homo sapiens) (UniProt Q9UGL1); assay: Inhibition of KDM5B in human 22Rv1 cells assessed as upregulation of IFI27L2 mRNA expression at 20 uM incubated for 24 hrs by RT-qPCR analysis; type: cell-based
[5] = biological target: T1, Protein cereblon/Lysine-specific demethylase 5B (Homo sapiens); assay: PROTAC activity at CRBN/KDM5B in human 22Rv1 cells assessed as reduction in KDM5B level by RT-qPCR analysis; type: cell-based
[6] = biological target: T1, Protein cereblon/Lysine-specific demethylase 5B (Homo sapiens); assay: PROTAC activity at CRBN/KDM5B in human 22Rv1 cells assessed as induction of KDM5B degradation at 5 uM in presence of CPI-455 measured after 24 hrs by Western blot analysis; type: cell-based
[7] = biological target: T1, Protein cereblon/Lysine-specific demethylase 5B (Homo sapiens); assay: Induction of KDM5B-CRBN protein protein interaction in human 22Rv1 cells at 20 uM incubated for 12 hrs in presence of MG-132 by Western blot analysis; type: cell-based
[8] = test system: CWR22R; assay: Cytotoxicity against human 22Rv1 cells assessed as reduction in cell proliferation at 0 to 20 uM measured after 24 to 48 hrs by MTS assay; type: toxicity, cell-based; conditions: dose lower 0 µM, time lower 24 hrs, dose upper 20 µM, time upper 48 hrs
[9] = biological target: Lysine-specific demethylase 5B (Homo sapiens) (UniProt Q9UGL1); assay: Inhibition of KDM5B in human 22Rv1 cells assessed as upregulation of IFI35 mRNA expression at 20 uM incubated for 24 hrs by RT-qPCR analysis; type: cell-based
[10] = biological target: Lysine-specific demethylase 5B (Homo sapiens) (UniProt Q9UGL1); assay: Induction of FLAG-tagged KDM5B degradation in HEK293T cells overexpressing KDM5B assessed as increase in ubiquitinated FLAG-KDM5B level by immunoprecipitation analysis; type: cell-based
[11] = biological target: T1, Protein cereblon/Lysine-specific demethylase 5B (Homo sapiens); assay: PROTAC activity at CRBN/KDM5B in human 22Rv1 cells assessed as reduction in KDM5B level at 0 to 20 uM incubated for 24 hrs by Western blot analysis; type: cell-based; conditions: dose 0-20 µM
[12] = test system: Protein cereblon/Lysine-specific demethylase 5B (Homo sapiens), Q96SW2+Q9UGL1 [L685W]; assay: PROTAC activity at CRBN/KDM5B L685W mutant in KDM5B-deficient human 22Rv1 cells harboring reintroduced KDM5B L685W assessed as induction of protein degradation at 20 uM incubated for 24 hrs by Western blot analysis; type: cell-based
[13] = biological target: T1, Protein cereblon/Lysine-specific demethylase 5B (Homo sapiens); assay: PROTAC activity at CRBN/KDM5B in human 22Rv1 cells assessed as induction of KDM5B degradation at 5 uM in presence of thalidomide measured after 24 hrs by Western blot analysis; type: cell-based
[14] = biological target: T1, Protein cereblon/Lysine-specific demethylase 5B (Homo sapiens); assay: PROTAC activity at CRBN/KDM5B in human 22Rv1 cells assessed as increase in H3K4me3 level by […] analysis; type: cell-based
[15] = biological target: Protein cereblon/Lysine-specific demethylase 5A (Homo sapiens) (UniProt P29375+Q96SW2); assay: Induction of KDM5A-CRBN (unknown origin) protein protein interaction assessed as ternary complex formation; type: protein assay
Protein cereblon/Lysine-specific demethylase 5A (Homo sapiens), sequence (P29375 whole entry, looked up): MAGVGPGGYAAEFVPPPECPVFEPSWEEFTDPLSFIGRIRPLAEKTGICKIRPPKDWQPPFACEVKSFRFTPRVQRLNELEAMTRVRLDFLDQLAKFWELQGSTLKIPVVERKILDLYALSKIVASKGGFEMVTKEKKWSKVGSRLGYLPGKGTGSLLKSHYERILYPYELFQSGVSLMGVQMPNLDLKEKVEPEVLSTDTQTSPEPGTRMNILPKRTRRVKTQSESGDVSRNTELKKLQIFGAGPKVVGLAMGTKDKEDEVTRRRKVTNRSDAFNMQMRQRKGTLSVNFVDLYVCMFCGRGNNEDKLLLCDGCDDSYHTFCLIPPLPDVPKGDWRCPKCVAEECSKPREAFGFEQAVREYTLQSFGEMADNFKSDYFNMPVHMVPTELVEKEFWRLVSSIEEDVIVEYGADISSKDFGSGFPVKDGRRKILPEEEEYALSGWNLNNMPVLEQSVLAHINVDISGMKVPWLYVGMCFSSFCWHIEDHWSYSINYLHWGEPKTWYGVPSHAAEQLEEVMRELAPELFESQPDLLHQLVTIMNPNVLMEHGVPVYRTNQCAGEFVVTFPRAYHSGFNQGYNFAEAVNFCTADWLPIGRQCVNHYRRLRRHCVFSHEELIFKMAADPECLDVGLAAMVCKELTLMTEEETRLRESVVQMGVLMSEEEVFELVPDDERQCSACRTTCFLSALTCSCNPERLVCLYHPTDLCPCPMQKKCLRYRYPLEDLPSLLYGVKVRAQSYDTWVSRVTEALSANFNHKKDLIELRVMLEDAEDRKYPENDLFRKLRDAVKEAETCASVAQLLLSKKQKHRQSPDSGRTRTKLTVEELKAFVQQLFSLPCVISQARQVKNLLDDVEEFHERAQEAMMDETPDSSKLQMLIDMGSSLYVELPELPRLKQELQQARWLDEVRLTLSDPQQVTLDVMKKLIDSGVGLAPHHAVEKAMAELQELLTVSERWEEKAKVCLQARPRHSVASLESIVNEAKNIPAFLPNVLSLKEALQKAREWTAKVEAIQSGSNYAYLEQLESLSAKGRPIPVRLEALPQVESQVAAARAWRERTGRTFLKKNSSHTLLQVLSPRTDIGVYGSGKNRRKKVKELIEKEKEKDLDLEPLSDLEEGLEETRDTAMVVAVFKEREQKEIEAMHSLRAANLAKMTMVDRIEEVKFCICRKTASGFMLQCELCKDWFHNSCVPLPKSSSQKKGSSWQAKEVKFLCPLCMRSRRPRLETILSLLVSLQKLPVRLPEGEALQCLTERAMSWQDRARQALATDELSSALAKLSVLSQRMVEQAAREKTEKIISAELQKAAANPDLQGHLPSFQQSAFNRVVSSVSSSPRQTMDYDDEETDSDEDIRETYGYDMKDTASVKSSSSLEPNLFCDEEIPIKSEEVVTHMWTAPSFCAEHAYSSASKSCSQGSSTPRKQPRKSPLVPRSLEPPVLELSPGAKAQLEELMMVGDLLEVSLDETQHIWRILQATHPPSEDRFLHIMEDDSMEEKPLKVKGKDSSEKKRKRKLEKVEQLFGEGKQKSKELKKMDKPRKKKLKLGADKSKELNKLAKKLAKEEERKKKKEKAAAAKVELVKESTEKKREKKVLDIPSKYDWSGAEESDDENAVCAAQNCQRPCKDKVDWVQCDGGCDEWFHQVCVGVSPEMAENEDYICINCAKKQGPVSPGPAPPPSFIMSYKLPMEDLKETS
Protein cereblon/Lysine-specific demethylase 5A (Homo sapiens), sequence (Q96SW2 whole entry, looked up): as the sequence (Q96SW2 whole entry, looked up) above

[16] = biological target: T1, Protein cereblon/Lysine-specific demethylase 5B (Homo sapiens); assay: PROTAC activity at CRBN/KDM5B in human 22Rv1 cells assessed as induction of KDM5B degradation at 5 uM in presence of MG-132 measured after 24 hrs by Western blot analysis; type: cell-based
[17] = biological target: Lysine-specific demethylase 5B (Homo sapiens) (UniProt Q9UGL1); assay: Inhibition of KDM5B in human 22Rv1 cells assessed as upregulation of HHLA3 mRNA expression at 20 uM incubated for 24 hrs by RT-qPCR analysis; type: cell-based
[18] = test system: CWR22R; assay: Upregulation of IFI27L2 mRNA expression in KDM5B-deficient human 22Rv1 cells harboring reintroduced KDM5B L685W at 20 uM incubated for 24 hrs by RT-qPCR analysis; type: functional, cell-based
[19] = test system: CWR22R; assay: Upregulation of IFI35 mRNA expression in KDM5B-deficient human 22Rv1 cells harboring reintroduced KDM5B L685W at 20 uM incubated for 24 hrs by RT-qPCR analysis; type: functional, cell-based
[20] = biological target: Protein cereblon/Lysine-specific demethylase 5C (Homo sapiens) (UniProt P41229+Q96SW2); assay: Induction of KDM5C-CRBN (unknown origin) protein protein interaction assessed as ternary complex formation; type: protein assay
[21] = biological target: Lysine-specific demethylase 5B (Homo sapiens) (UniProt Q9UGL1); assay: Inhibition of KDM5B in human 22Rv1 cells assessed as upregulation of IRF3 mRNA expression at 20 uM incubated for 24 hrs by RT-qPCR analysis; type: cell-based
[22] = test system: CWR22R; assay: Effect on KDM5B transcription in human 22Rv1 cells at 0 to 20 uM measured after 24 hrs by RT-qPCR analysis; type: functional, cell-based; conditions: dose 0-20 µM
[23] = test system: CWR22R; assay: Upregulation of IRF3 mRNA expression in KDM5B-deficient human 22Rv1 cells harboring reintroduced KDM5B L685W at 20 uM incubated for 24 hrs by RT-qPCR analysis; type: functional, cell-based
[24] = biological target: T1, Protein cereblon/Lysine-specific demethylase 5B (Homo sapiens); assay: PROTAC activity at CRBN/KDM5B in human 22Rv1 cells assessed as induction of KDM5B degradation at 10 uM in presence of cycloheximide measured after 2 to 12 hrs by Western blot analysis; type: cell-based; conditions: time 2-12 hrs
[25] = test system: CWR22R; assay: Upregulation of HHLA3 mRNA expression in KDM5B-deficient human 22Rv1 cells harboring reintroduced KDM5B L685W at 20 uM incubated for 24 hrs by RT-qPCR analysis; type: functional, cell-based
[26] = test system: CWR22R; assay: Downregulation of KDM5B-induced H3K9me3 level in KDM5B-deficient human 22Rv1 cells harboring reintroduced KDM5B L685W at 20 uM incubated for 24 hrs by Western blot analysis; type: functional, cell-based
[27] = biological target: T1, Protein cereblon/Lysine-specific demethylase 5B (Homo sapiens); assay: PROTAC activity at CRBN/KDM5B in human 22Rv1 cells assessed as increase in H3K4me3 level at 0 to 20 uM incubated for 24 hrs by Western blot analysis; type: cell-based; conditions: dose 0-20 µM
[28] = biological target: Lysine-specific demethylase 5B (Homo sapiens) (UniProt Q9UGL1); assay: Inhibition of KDM5B non-catalytic activity in human 22Rv1 cells assessed as inhibition of KDM5B binding to SETDB1 by measuring reduction in H3K9me3 level at 20 uM incubated for 24 hrs by Co-IP analysis; type: cell-based

Activity [1]: 0%
Structure (SMILES): N#Cc1cnn2c(=O)cc(-c3ccc(OCCNC(=O)CCOCCOCCNc4cccc5c4C(=O)N(C4CCC(=O)NC4=O)C5=O)cc3)[nH]c12 (centres undefined)

inhibition [2]: Active
Structure (SMILES): CC(C)(C)OC(=O)NCCOc1ccc(-c2cc(=O)n3ncc(C#N)c3[nH]2)cc1

Activity [1]: 0%
Structure (SMILES): N#Cc1cnn2c(=O)cc(-c3ccc(OCC(=O)NCCOCCNC(=O)CNc4cccc5c4C(=O)N(C4CCC(=O)NC4=O)C5=O)cc3)[nH]c12 (centres undefined)

Activity [1]: 0%
Structure (SMILES): N#Cc1cnn2c(=O)cc(-c3ccc(OCCNC(=O)CCCNc4cccc5c4C(=O)N(C4CCC(=O)NC4=O)C5=O)cc3)[nH]c12 (centres undefined)

Activity [1]: 10.8%
Structure (SMILES): N#Cc1cnn2c(=O)cc(-c3ccc(OCCNC(=O)CCCCCNc4cccc5c4C(=O)N(C4CCC(=O)NC4=O)C5=O)cc3)[nH]c12 (centres undefined)

Activity [1]: 6.31%
Structure (SMILES): N#Cc1cnn2c(=O)cc(-c3ccc(OCCNC(=O)CCOCCOc4cccc5c4C(=O)N(C4CCC(=O)NC4=O)C5=O)cc3)[nH]c12 (centres undefined)

Activity [1]: 0%
Structure (SMILES): N#Cc1cnn2c(=O)cc(-c3ccc(OCCNC(=O)CCOCCOCCOCCNc4cccc5c4C(=O)N(C4CCC(=O)NC4=O)C5=O)cc3)[nH]c12 (centres undefined)

inhibition [3]: Active
Structure (SMILES): CC(C)c1c(-c2ccccc2)[nH]c2c(C#N)cnn2c1=O

Activity [1]: 5.27%
Structure (SMILES): N#Cc1cnn2c(=O)cc(-c3ccc(OCCNC(=O)CCOCCNc4cccc5c4C(=O)N(C4CCC(=O)NC4=O)C5=O)cc3)[nH]c12 (centres undefined)

Activity [1]: 0%
Structure (SMILES): N#Cc1cnn2c(=O)cc(-c3ccc(OCCNC(=O)CCOCCOCCOCCOCCNc4cccc5c4C(=O)N(C4CCC(=O)NC4=O)C5=O)cc3)[nH]c12 (centres undefined)

Activity [1]: 0%
Structure (SMILES): N#Cc1cnn2c(=O)cc(-c3ccc(OCC(=O)NCCOCCNC(=O)COc4cccc5c4C(=O)N(C4CCC(=O)NC4=O)C5=O)cc3)[nH]c12 (centres undefined)

inhibition [2]: Active
Structure (SMILES): CC(C)(C)OC(=O)COc1ccc(-c2cc(=O)n3ncc(C#N)c3[nH]2)cc1

Structure (SMILES): N#Cc1cnn2c(=O)cc(-c3ccc(OCC(=O)NCCOCCOc4cccc5c4C(=O)N(C4CCC(=O)NC4=O)C5=O)cc3)[nH]c12 (centres undefined)
inhibition [4]: Active | Activity [5]: Active | Activity [6]: inactive | Activity [7]: Active | Activity [8]: Non-Toxic | inhibition [9]: Active | Activity [10]: Active | Activity [11]: Active | Activity [12]: Active | Activity [13]: inactive | Activity [14]: Active | Activity [15]: inactive | Activity [16]: inactive | inhibition [17]: Active | Activity [18]: Active | Activity [19]: Active | Activity [20]: inactive | inhibition [21]: Active | Activity [22]: inactive | Activity [23]: Active | Activity [24]: Active | Activity [25]: Active | Activity [26]: Active | inhibition [3]: Active | Activity [27]: Active | Activity [1]: 68.3% | inhibition [28]: Active
